In this data set the test system is rodent carcinogenicity bioassays, tumor incidence. Nature of the data set: CCRIS carcinogenicity studies. In outline:
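Archive of carcinogenicity, mutagenicity, tumor promotion and tumor inhibition results drawn from journals, NCI reports and other sources, expert-reviewed; covers 1985-2011 and is no longer updated.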

Calls of active or inactive are those of the source. How the calls were made is not given here.

Turning to `S=P(N1CC1)(N1CC1)N1CC1`, the carcinogen call was “active; positive” (Species: MOUSE, Strain/Sex: B6C3F1/FEMALE, Route: INTRAPERITONEAL, Dose: 0, 1.15, 2.3 MG/KG 3/WK FOR 43-52 WK (STUDY DURATION: 86-87 WK), Dose: 0, 1.15, 2.3 MG/KG 3/WK FOR 43-52 WK (STUDY DURATION: 86-87 WK), Tumor Site: Type of Lesion: HEMATOPOIETIC SYSTEM (LEUKEMIA): LYMPHOCYTIC LEUKEMIA, LYMPHATIC SYSTEM: LYMPHOMA); “active; positive” (Species: MOUSE, Strain/Sex: B6C3F1/MALE, Route: INTRAPERITONEAL, Dose: 0, 1.15, 2.3 MG/KG 3/WK FOR 52 WK (STUDY DURATION: 56-87 WK), Dose: 0, 1.15, 2.3 MG/KG 3/WK FOR 52 WK (STUDY DURATION: 56-87 WK), Tumor Site: Type of Lesion: INTEGUMENTARY SYSTEM (SKIN): SQUAMOUS CELL CARCINOMA, HEMATOPOIETIC SYSTEM (LEUKEMIA), LYMPHATIC SYSTEM: LYMPHOMA, EAR (, Tumor Site: Type of Lesion: INTEGUMENTARY SYSTEM (SKIN): SQUAMOUS CELL CARCINOMA, HEMATOPOIETIC SYSTEM (LEUKEMIA), LYMPHATIC SYSTEM: LYMPHOMA, EAR (); “active; positive” (Species: RAT, Strain/Sex: SPRAGUE-DAWLEY/FEMALE, Route: INTRAPERITONEAL, Dose: 0, 0.7, 1.4, 2.8 MG/KG 3/WK FOR 21-52 WK (STUDY DURATION: 21-87 WK), Dose: 0, 0.7, 1.4, 2.8 MG/KG 3/WK FOR 21-52 WK (STUDY DURATION: 21-87 WK), Tumor Site: Type of Lesion: MAMMARY GLAND: ADENOCARCINOMA, PITUITARY GLAND: CHROMOPHOBE ADENOMA); “active; positive” (Species: RAT, Strain/Sex: SPRAGUE-DAWLEY/MALE, Route: INTRAPERITONEAL, Dose: 0, 0.7, 1.4, 2.8 MG/KG 3/WK FOR 19-52 WK (STUDY DURATION: 19-87 WK), Dose: 0, 0.7, 1.4, 2.8 MG/KG 3/WK FOR 19-52 WK (STUDY DURATION: 19-87 WK), Tumor Site: Type of Lesion: INTEGUMENTARY SYSTEM (SKIN): SQUAMOUS CELL CARCINOMA, INTEGUMENTARY SYSTEM (SUBCUTANEOUS TISSUE): SARCOMA, HEMATOPOIETIC, Tumor Site: Type of Lesion: INTEGUMENTARY SYSTEM (SKIN): SQUAMOUS CELL CARCINOMA, INTEGUMENTARY SYSTEM (SUBCUTANEOUS TISSUE): SARCOMA, HEMATOPOIETIC).

On to `CCCCCCCCCc1ccc(OCCO)cc1`, for which the carcinogen call is “inactive; negative” (Species: MOUSE, Strain/Sex: B6C3F1/FEMALE, Route: ORAL, Dose: 0, 500, 1500, 4500 PPM IN DIET FOR 104 WK (STUDY DURATION: 104 WK), Dose: 0, 500, 1500, 4500 PPM IN DIET FOR 104 WK (STUDY DURATION: 104 WK)) and “inactive; negative” (Species: RAT, Strain/Sex: F344/FEMALE, Route: ORAL, Dose: 0, 1000, 3000, 9000 PPM IN DIET FOR 104 WK (STUDY DURATION: 104 WK), Dose: 0, 1000, 3000, 9000 PPM IN DIET FOR 104 WK (STUDY DURATION: 104 WK)).

`[As]`: for the setting “Species: HUMAN, Route: INHALATION, ORAL, Tumor Site: Type of Lesion: LUNG, INTEGUMENTARY SYSTEM (SKIN)”, the carcinogen call was “active; positive”.

Consider `CCCSP(=O)(OCC)SCCC`, for which the carcinogen call runs as follows: (Species: Mouse, Strain/Sex: B6C3F1/Female (50/Group), Route: Oral, Dose: 0, 0.2, 2, 30 ppm of 94.6% ethoprop in diet for 104 wk, study duration 104 wk, Dose: 0, 0.2, 2, 30 ppm of 94.6% ethoprop in diet for 104 wk, study duration 104 wk) “inactive; negative”; (Species: Mouse, Strain/Sex: B6C3F1/Male (50/Group), Route: Oral, Dose: 0, 0.2, 2, 30 ppm of 94.6% ethoprop in diet for 104 wk, study duration 104 wk, Dose: 0, 0.2, 2, 30 ppm of 94.6% ethoprop in diet for 104 wk, study duration 104 wk) “inactive; negative”; (Species: Rat, Strain/Sex: Crl:CD(SD)BR VAF/Plus/Female (80-90/Group), Route: Oral, Dose: 0, 60, 400 (reduced from 600 during wk 3) ppm of 95.6% ethoprop in diet for 104 wk, study duration 104 wk, Dose: 0, 60, 400 (reduced from 600 during wk 3) ppm of 95.6% ethoprop in diet for 104 wk, study duration 104 wk) “inactive; negative”; (Species: Rat, Strain/Sex: Crl:CD(SD)BR VAF/Plus/Male (80-90/Group), Route: Oral, Dose: 0, 60, 400 (reduced from 600 during wk 3) ppm of 95.6% ethoprop in diet for 104 wk, study duration 104 wk, Dose: 0, 60, 400 (reduced from 600 during wk 3) ppm of 95.6% ethoprop in diet for 104 wk, study duration 104 wk) “inactive; negative”.

With `C=C(C)C(=O)OC`, the carcinogen call reads like this: (Species: HAMSTER, Strain/Sex: GOLDEN/FEMALE, Route: INHALATION, Dose: 0, 25, 100, 400 PPM IN AIR 6 HR/D 5 D/WK FOR 18 MO (STUDY DURATION: 78 WK), Dose: 0, 25, 100, 400 PPM IN AIR 6 HR/D 5 D/WK FOR 18 MO (STUDY DURATION: 78 WK)) “inactive; negative”; (Species: HAMSTER, Strain/Sex: GOLDEN/MALE, Route: INHALATION, Dose: 0, 25, 100, 400 PPM IN AIR 6 HR/D 5 D/WK FOR 18 MO (STUDY DURATION: 78 WK), Dose: 0, 25, 100, 400 PPM IN AIR 6 HR/D 5 D/WK FOR 18 MO (STUDY DURATION: 78 WK)) “inactive; negative”; (Species: MOUSE, Strain/Sex: B6C3F1/FEMALE, Route: INHALATION, Dose: 0, 500, 1000 PPM 6 HR/D, 5 D/WK FOR 102 WK, Dose: 0, 500, 1000 PPM 6 HR/D, 5 D/WK FOR 102 WK) “inactive; negative”; (Species: MOUSE, Strain/Sex: B6C3F1/MALE, Route: INHALATION, Dose: 0, 500, 1000 PPM 6 HR/D, 5 D/WK FOR 102 WK, Dose: 0, 500, 1000 PPM 6 HR/D, 5 D/WK FOR 102 WK) “inactive; negative”; (Species: RAT, Strain/Sex: F344/FEMALE, Route: INHALATION, Dose: 0, 25, 100, 400 PPM IN AIR 6 HR/D 5 D/WK FOR 24 MO (STUDY DURATION: 104-106 WK), Dose: 0, 25, 100, 400 PPM IN AIR 6 HR/D 5 D/WK FOR 24 MO (STUDY DURATION: 104-106 WK)) “inactive; negative”; (Species: RAT, Strain/Sex: F344/FEMALE, Route: INHALATION, Dose: 0, 250, 500 PPM 6 HR/D, 5 D/WK FOR 102 WK, Dose: 0, 250, 500 PPM 6 HR/D, 5 D/WK FOR 102 WK) “inactive; negative”. For the same compound, the carcinogen call (Species: RAT, Strain/Sex: F344/MALE, Route: INHALATION, Dose: 0, 25, 100, 400 PPM IN AIR 6 HR/D 5 D/WK FOR 24 MO (STUDY DURATION: 104-106 WK), Dose: 0, 25, 100, 400 PPM IN AIR 6 HR/D 5 D/WK FOR 24 MO (STUDY DURATION: 104-106 WK)) was “inactive; negative” and the carcinogen call (Species: RAT, Strain/Sex: F344/MALE, Route: INHALATION, Dose: 0, 500, 1,000 PPM 6 HR/D, 5 D/WK FOR 102 WK, Dose: 0, 500, 1,000 PPM 6 HR/D, 5 D/WK FOR 102 WK) is “inactive; negative”.

In the case of `C[C@]12C=CC(=O)C=C1CC[C@@H]1[C@@H]2[C@@H](O)C[C@@]2(C)[C@H]1CC[C@]2(O)C(=O)COC(=O)CCCc1ccc(N(CCCl)CCCl)cc1`, the carcinogen call (Species: RAT, Strain/Sex: SPRAGUE-DAWLEY/FEMALE, Route: GAVAGE, Dose: 0, 12 MG/KG ADMINISTERED 1, 2, 4.5 OR 9 TIMES PER MO FOR 18 MO TO GIVE MEDIAN TOTAL DOSES OF 216, 432, 938, 1872 MG/KG (, Dose: 0, 12 MG/KG ADMINISTERED 1, 2, 4.5 OR 9 TIMES PER MO FOR 18 MO TO GIVE MEDIAN TOTAL DOSES OF 216, 432, 938, 1872 MG/KG (, Tumor Site: Type of Lesion: EAR CANAL: SQUAMOUS-CELL CARCINOMA) was “active; positive”.

For `Nc1ccc(Nc2ccccc2)cc1`, the carcinogen call (Species: MOUSE, Strain/Sex: B6C3F1/FEMALE, Route: ORAL, Dose: 0, 3672, 8170 PPM IN DIET, TWA, Dose: 0, 3672, 8170 PPM IN DIET, TWA) is “inactive; negative”; the carcinogen call (Species: MOUSE, Strain/Sex: B6C3F1/MALE, Route: ORAL, Dose: 0, 2057, 4114 PPM IN DIET, TWA, Dose: 0, 2057, 4114 PPM IN DIET, TWA) is “inactive; negative”; the carcinogen call (Species: RAT, Strain/Sex: F344/FEMALE, Route: ORAL, Dose: 0, 600, 1200 PPM IN DIET, Dose: 0, 600, 1200 PPM IN DIET) was “inactive; negative”; the carcinogen call (Species: RAT, Strain/Sex: F344/MALE, Route: ORAL, Dose: 0, 600, 1200 PPM IN DIET, Dose: 0, 600, 1200 PPM IN DIET) was “inactive; negative”.

The record behind these values is PubChem BioAssay AID1259411 (Chemical Carcinogenesis Research Information System (CCRIS), 2018).
